Values after ≈ are worked out from the molar mass of the structure shown.

The conditions of the data set: buffer; pH 7.4; 200.0 µM.
As a reminder, the solubility (kinetic) is solubility judged after dilution from a stock solution rather than from solid. As for `O=C(Nc1nc2c(F)c(F)c(F)cc2s1)c1ccco1`, the kinetic solubility is below 0.3 µg/mL. `CN(CC(=O)NC1CCCCCCC1)S(=O)(=O)c1cnc[nH]1` showed a solubility (kinetic) above 49.3 µg/mL. For `O=C(NCCc1ccccc1Cl)C1CC(=O)N(C2CCCCC2)C1` (stereo not given) the value was above 52.3 µg/mL; for `c1ccc(CCCN2CCN(c3ccccn3)CC2)cc1`, 26.8 µg/mL (≈ 95.2 µM). For `COc1cc2c(cc1OC)-c1cc(Nc3ccccc3C)nc(=O)n1CC2` the value was 49.3 µg/mL (≈ 136 µM). With `CC(=O)c1sc(NC(=O)c2ccc(C(C)(C)C)cc2)nc1C` the figure was below 0.3 µg/mL; with `O=C(Nc1cccc([N+](=O)[O-])c1)N1CCCCCC1`, 37.5 µg/mL (≈ 142 µM).

In turn, `COCCNC(=S)Nc1ccccc1Cc1ccccc1` came in with a solubility (kinetic) of 13.7 µg/mL (≈ 45.6 µM). For `COC(=O)Cn1cc([N+](=O)[O-])nc1C` the value was above 29.9 µg/mL; for `COc1ccc(NC(=O)CN2C(=O)COc3ccccc32)cc1OC`, 3 µg/mL (≈ 8.76 µM). For `CC(C)(C)c1cc2ncnc(N3CCCCC3)c2s1` the value was 10.5 µg/mL (≈ 38.1 µM). For `O=C(COC(=O)c1ccccc1O)NCCCc1ccccc1` the value was 5 µg/mL (≈ 16 µM); for `Cc1cccc(N=C2C(=O)Nc3c(Cl)cccc32)c1`, 32.4 µg/mL (≈ 120 µM). `O=C(OCC(=O)N1CCOCC1)c1cccc(F)c1` displayed a solubility (kinetic) above 40.1 µg/mL.

The compound `Cc1cccc(NC(=O)CCOc2ccccc2)c1C` yielded a solubility (kinetic) of 15.6 µg/mL (≈ 57.9 µM). With `CCOC(=O)N1CCN(C(=S)NC(=O)c2cccc(OC)c2)CC1` the figure was above 52.7 µg/mL.

In the case of `C=C(C)n1c(=O)n(Cc2ccccc2C)c2ccccc21`, the solubility (kinetic) was determined as 16 µg/mL (≈ 57.5 µM). `CCN1C(=O)CC(N2CCC(C(=O)N3CCCCCC3)CC2)C1=O` (stereo not given) had a kinetic solubility above 50.3 µg/mL. With `O=C1COc2ccc(C(=O)COC(=O)c3ccccc3F)cc2N1` the figure was 10.1 µg/mL (≈ 30.7 µM). With `COc1ccc(S(=O)(=O)NC2CCCCC2)cc1F` the figure was above 43.1 µg/mL; with `Cc1ccc(CNCC(O)c2ccccc2)s1.Cl` (stereo not given), above 42.6 µg/mL; with `COc1cc2c(cc1OC)/C(=C/C(=O)c1cccc([N+](=O)[O-])c1)NCC2`, 0.5 µg/mL (≈ 1.41 µM). `Cc1ccc(C2(O)CN3CCC2CC3)cc1.Cl` (stereo not given) registered a solubility (kinetic) above 38.1 µg/mL. `Cc1cc(NC(=O)c2cc(-c3ccc(O)cc3)on2)no1` showed a kinetic solubility of 0.5 µg/mL (≈ 1.75 µM). For `CCCCNC(=O)COC(=O)c1ccc(N(C)C)cc1` the value was above 41.8 µg/mL. `Cn1c(-c2ccccc2)cc2ccccc21`: the kinetic solubility was 0.6 µg/mL (≈ 2.89 µM). For `Fc1ccc(CNCc2ccco2)cc1` the value was 11.8 µg/mL (≈ 57.5 µM); for `O=C1CSC(c2ccccc2O)N1Cc1ccccc1` (stereo not given), above 42.8 µg/mL. With `O=C(NC1CCCc2ccccc21)N[C@@H](Cc1ccccc1)C(=O)O` (stereo not given in full) the figure was above 50.8 µg/mL. As for `O=C(NCCC1=CCCCC1)C1CCN(S(=O)(=O)N2CCCC2)CC1`, the solubility (kinetic) came to 50.7 µg/mL (≈ 137 µM). With `O=C(COc1ccccc1[N+](=O)[O-])NCC1(N2CCOCC2)CCCCC1` the figure was above 56.6 µg/mL; with `Cc1cccc(N(C)S(=O)(=O)c2c(C)noc2C)c1`, 37.1 µg/mL (≈ 132 µM); with `COc1ccc(NC(=O)NC2CCCc3ccccc32)cc1OC` (stereo not given), 1.1 µg/mL (≈ 3.37 µM). For `Cc1c(C)n(CCN(C)C)c2ncnc(NCc3ccccc3)c12` the value was 42.9 µg/mL (≈ 133 µM). With `Cc1oc2ccccc2c1CC(=O)NCCCN(C)C` the figure was above 41.2 µg/mL; with `O=C(CCl)Nc1cccc(Oc2cnccn2)c1`, 39.4 µg/mL (≈ 149 µM). In turn, `O=C(CCc1nc2ccccc2s1)Nc1cccnc1` yielded a kinetic solubility of 32.6 µg/mL (≈ 115 µM).

`CC(=O)N1N=C2C3CCN(CC3)C2C1c1ccc(F)cc1` (stereo not given) registered a solubility (kinetic) above 43.1 µg/mL.

With `COc1cccc(S(=O)(=O)Nc2noc3ccccc23)c1`, the kinetic solubility was determined as 37.6 µg/mL (≈ 124 µM). For `O=C1CN(C(=S)Nc2ccccc2Cl)CCN1` the value was above 40.5 µg/mL. For `COc1ccc(NS(=O)(=O)c2ccc(F)cc2F)cn1` the value was 43.3 µg/mL (≈ 144 µM). `N#CCC(=O)Nc1ccc(C(=O)NCc2ccccn2)cc1` yielded a solubility (kinetic) above 44.1 µg/mL.

`NC(=O)c1c(NC(=O)c2ccccc2)sc2c1CCC2` came in with a kinetic solubility of 1.3 µg/mL (≈ 4.54 µM). With `O=C(Nc1ccncc1)c1ccc([N+](=O)[O-])cc1Cl` the figure was 17.6 µg/mL (≈ 63.4 µM); with `CN(CCO)c1cc(N(C)CCO)c([N+](=O)[O-])cc1[N+](=O)[O-]`, 42.1 µg/mL (≈ 134 µM); with `Cc1ccccc1NC(=O)Nc1cnccn1`, 12.4 µg/mL (≈ 54.3 µM). With `CC(OC(=O)CCc1c[nH]c2ccccc12)C(=O)c1ccccc1` (stereo not given) the figure was 12.7 µg/mL (≈ 39.5 µM); with `Oc1ccccc1CNc1nccs1`, above 30.9 µg/mL.

Take `COc1ccc(CCC(=O)NC2CCCCC2)cc1`: the solubility (kinetic) is above 39.2 µg/mL. Consider `Cc1ccccc1OCC(=O)Nc1ccccc1NC(=O)c1ccco1`, for which the kinetic solubility came to 36.7 µg/mL (≈ 105 µM). With `O=c1cc(-c2ccccc2)nc(Cc2c(Cl)cccc2Cl)[nH]1` the figure was below 0.4 µg/mL; with `Cc1cccc(NC(=O)CCN2C(=O)c3ccccc3C2=O)c1`, above 46.3 µg/mL; with `Cc1ccc(OCCNC(=O)CCc2ccccc2)cc1C`, 12.9 µg/mL (≈ 43.4 µM).

In turn, `Cc1ccc(NC(=S)N2CCCC2)cc1Cl` showed a solubility (kinetic) of 12.5 µg/mL (≈ 49.1 µM). For `Cl.Nc1nc(N2CCN(c3ccccn3)CC2)nc2ccccc12` the value was 54.8 µg/mL; for `Cc1ccc(Nc2nc(Cl)nc(NC3CCCCC3)n2)cc1`, below 0.1 µg/mL; for `NS(=O)(=O)c1cccc(NC(=O)COC(=O)CSCc2ccccc2)c1`, above 59.2 µg/mL.

As to `CCN1C(=O)C(=Cc2cc(C)n(C3CC3)c2C)C(=O)N(CC)C1=S`, the solubility (kinetic) came out at 2.8 µg/mL (≈ 8.1 µM).

In turn, `Nc1ccccc1SCC(=O)Nc1cccc2ccccc12` displayed a solubility (kinetic) of 32.6 µg/mL (≈ 106 µM). With `CC(C(=O)NCc1ccccc1Cl)N1C(=O)c2ccccc2C1=O` (stereo not given) the figure was above 51.4 µg/mL. With `COc1ccc(CNCC(O)(c2ccccc2)c2ccccc2)cc1` the figure was above 50 µg/mL; with `Oc1ccccc1-c1cncn1Cc1ccccc1`, 11.4 µg/mL (≈ 45.5 µM). `N=C1C(c2ccccc2)=C(O)CN1c1cccc2ccccc12` yielded a kinetic solubility above 45.1 µg/mL. For `CC1(C)CC(=O)C=C(NCCc2ccccc2)C1` the value was 35.1 µg/mL (≈ 144 µM); for `O=C(NC1=NCCS1)c1ccccc1OCc1ccc(F)cc1`, below 0.4 µg/mL; for `CCCCOc1ccc(C(=O)NCCOc2cccc(OC)c2)cc1`, 4 µg/mL (≈ 11.6 µM). With `Cc1nnc(SCC(=O)NC2CCCCC2)[nH]c1=O` the figure was above 42.4 µg/mL; with `CCOC(=O)CNC(=O)CSc1nc(-c2ccc(OC)cc2)ns1`, 2.8 µg/mL (≈ 7.62 µM).

With `O=C(Nc1ccc(NC(=O)c2ccco2)cc1)c1ccco1`, the solubility (kinetic) worked out at 2.5 µg/mL (≈ 8.44 µM).

For `Cc1ccc(C(=O)Nc2nc3ccccc3[nH]2)cc1`, the kinetic solubility was determined as 2.4 µg/mL (≈ 9.55 µM). For `O=c1ncn(-c2cccc(Cl)c2)c2ccccc12` the value was 38 µg/mL (≈ 148 µM); for `COc1cc(C(=O)N[C@H](C(=O)NC2CCCc3ccccc32)C(C)C)cc(OC)c1OC` (stereo not given in full), 4.9 µg/mL (≈ 11.1 µM); for `O=c1[nH]c(-c2ccccc2)cnc1-c1ccccc1`, 0.4 µg/mL (≈ 1.61 µM). On to `Cc1ccc(NC(=O)Cc2ncon2)cc1Cl`, for which the solubility (kinetic) was above 37.8 µg/mL. For `COc1ccc2c(c1)C1=C(CC2)C(c2ccc(C)cc2)NC(=S)N1` (stereo not given) the value was 10.5 µg/mL (≈ 31.2 µM); for `CC(=O)c1ccc(NC(=O)N2CCN(c3ccc(C)cc3)C(C)C2)cc1` (stereo not given), 39.4 µg/mL (≈ 112 µM); for `O=C(NC1CCN(C(=O)NCc2ccccc2)CC1)c1ccc(F)cc1`, 9.3 µg/mL (≈ 26.2 µM). For `CC1=C(C)CC(C(=O)NCCCN2CCCC2=O)C(C(=O)O)C1` (stereo not given) the value was above 48.4 µg/mL; for `CSc1ncc(C(=O)Nc2cccc(Cl)c2C)c(C)n1`, 18.8 µg/mL (≈ 61.1 µM). For `CC(C)CN(C(=O)CSc1nncn1C)C1CCS(=O)(=O)C1` (stereo not given) the value was above 52 µg/mL; for `COc1cc(CC(=O)OCC(=O)NCc2cccs2)cc(OC)c1OC`, above 56.9 µg/mL; for `Cc1cccc(-n2ccnc2CN2CCN(C(C)C)C(CCO)C2)c1` (stereo not given), 49.7 µg/mL (≈ 145 µM). `Cc1ccc2[nH]c(=O)cc(C(=O)OCC(=O)c3ccc(F)cc3)c2c1` displayed a solubility (kinetic) of 1.5 µg/mL (≈ 4.42 µM). With `CC1CN(C2=NC(=O)/C(=C/c3ccncc3)S2)CC(C)O1` (stereo not given) the figure was above 45.5 µg/mL; with `N#Cc1ccc(-c2nc3ccccc3c(=O)n2O)cc1`, above 39.5 µg/mL; with `O=C1COc2ccc(S(=O)(=O)N3CCc4ccccc43)cc2N1`, 2.4 µg/mL (≈ 7.26 µM). In the case of `NS(=O)(=O)c1ccc(NC(=O)/C=C/c2ccco2)cc1`, the solubility (kinetic) was determined as 36.3 µg/mL (≈ 124 µM).

`COc1ccc(Cl)cc1NC(=O)COC(=O)C1CCCCC1` registered a kinetic solubility of 3.2 µg/mL (≈ 9.82 µM). `CC(C)(C)c1csc(NC(=O)CSC2=NCCS2)n1` gave a kinetic solubility of 10.6 µg/mL (≈ 33.6 µM). `CC(=O)c1cc(Cl)ccc1OCC(=O)NC1CCCC1` came in with a solubility (kinetic) above 44.4 µg/mL.

Consider `Cc1ccc(Nc2cc(C)c3ccc(O)cc3n2)cc1C.Cl`, for which the solubility (kinetic) stood at 11.1 µg/mL. With `COC(=O)C1CCN(C(=O)c2cc(=O)[nH]c3ccccc23)CC1` the figure was above 47.2 µg/mL; with `O=C(Nc1ccc(Cl)cc1)c1ccc2ncsc2c1`, 3.1 µg/mL (≈ 10.7 µM). With `COc1ccc(C(=O)Nc2ccc(Cl)c(S(=O)(=O)N3CCOCC3)c2)cc1` the figure was 2.9 µg/mL (≈ 7.06 µM).

`CSCCC(NC(=O)c1ccccc1)C(=O)N1CCN(C(=O)c2ccccc2)CC1` (stereo not given) registered a kinetic solubility above 63.8 µg/mL.

Take `O=C(CN1C(=O)NC2(CCCC2)C1=O)NCc1cccc(Cl)c1`: the kinetic solubility is 42.4 µg/mL (≈ 126 µM).

In turn, `S=C(Nc1ccc(Oc2ccccc2)cc1)Nc1cccnc1` came in with a solubility (kinetic) of 30 µg/mL (≈ 93.3 µM). With `COC(=O)C1=C(C)NC(=O)NC1c1ccccc1Cl` (stereo not given) the figure was 18.5 µg/mL (≈ 65.9 µM). In turn, `O=C(c1ccco1)N1CCN(c2ccc([N+](=O)[O-])cc2Cl)CC1` displayed a solubility (kinetic) of 3.8 µg/mL (≈ 11.3 µM).

Regarding `COc1c(-c2ccc([N+](=O)[O-])cc2[N+](=O)[O-])c(=O)n(C)c(=O)n1C`, the kinetic solubility is above 50.4 µg/mL.

Compound `O=S(=O)(c1ccc(SCCO)nc1)N1CCOCC1` returned a solubility (kinetic) above 45.7 µg/mL. On to `O=C(O)C1CCCN(S(=O)(=O)Cc2ccccc2)C1` (stereo not given), for which the solubility (kinetic) came out at 37.7 µg/mL (≈ 133 µM). With `CSc1ccccc1NC(=O)CN(C)C(C)C(=O)NCc1ccc2c(c1)OCO2` (stereo not given) the figure was 16 µg/mL (≈ 38.5 µM); with `Cn1cnc([N+](=O)[O-])c1Sc1nc2ccccc2[nH]1`, 5.1 µg/mL (≈ 18.5 µM).

`O=S(=O)(Oc1ccccc1)c1cccnc1` gave a solubility (kinetic) of 29.4 µg/mL (≈ 125 µM). Compared with the last compound, the solubility kinetic is about 5.8-fold higher.

The values are drawn from PubChem BioAssay AID1996.
